From patent US20230098254A1, “SCUTELLARIAE RADIX COMPOUNDS AND USE THEREOF FOR INHIBITING OXIDATIVE PHOSPHORYLATION PATHWAY OF MITOCHONDRIA” (priority 2020, published 2023) come the findings set out here.

One assay has as its system G-361. The assay is described as follows: Cell viability CellTiter-Glo, G-361. Type of assay: cell-based. The note with it: Homo sapiens; G-361, melanoma. As to the method: (§1) Cell viability was measured by using the Promega CellTiter-Glo kit, the kit reflected cell viability by directly measuring intracellular ATP content. Different cancer cells were cultured in culture medium, and the 50% inhibitory concentration IC50 of the compound SJ2858 was measured by Promega CellTiter-Glo kit. The name source and culture condition of each tumor cell line were as follows:
Cell line G-361 (ATCC, No. CRL-1424) was cultured in McCoy's 5a medium containing 10% fetal bovine serum (+P/S).
A general note: ATP-based viability assays read luminescence as a measure of living cells.

The test system of a further assay is CHL-1. In words: Cell viability CellTiter-Glo, CHL-1. The assay is classed as cell-based. As to conditions: Homo sapiens; CHL-1, melanoma. The protocol:
as §1
Cell line CHL-1 (ATCC, No. CRL-9446) was cultured in DMEM medium containing 10% fetal bovine serum (+P/S);

For a further assay, the system named is HCC1806. In words: Cell viability CellTiter-Glo, HCC1806. Type of assay: cell-based. The note with it: Homo sapiens; HCC1806, breast cancer. The protocol: as §1
Cell line HCC1806 (ATCC, No. CRL-2335) was cultured in RPMI1640 medium containing 10% fetal bovine serum (+P/S);

A further assay deals with HCC15. In words: Cell viability CellTiter-Glo, HCC15. The assay is classed as cell-based. As to conditions: HCC15, lung cancer. The protocol:
as §1
Cell line HCC15 (KCLB, No. 70015) was cultured in RPMI1640 medium containing 10% fetal bovine serum (+P/S);

The subject of the next assay is GAK. The assay is described as follows: Cell viability CellTiter-Glo, GAK. Type of assay: cell-based. As to conditions: melanoma. As to the method:
as §1
Cell line GAK (JCRB, No. JCRB0180) was cultured in Ham's F12 medium containing 20% fetal bovine serum (+P/S);

A further assay concerns HH. In words: Cell viability CellTiter-Glo, HH. As to conditions: Homo sapiens, lymphoma. Type of assay: cell-based. As to the method:
as §1
Cell line HH (ATCC, No. CRL-2105) was cultured in RPMI1640 medium containing 10% fetal bovine serum (+P/S);

The subject of another assay is Jurkat, Clone E6-1. The assay is described as follows: Cell viability CellTiter-Glo, Jurkat, Clone E6-1. The assay is classed as cell-based. As to conditions: Homo sapiens, Clone E6-1, leukemia. As to the method: as §1
Cell line Jurkat, Clone E6-1 (ATCC, No. TIB-152) was cultured in RPMI1640 medium containing 10% fetal bovine serum (+P/S);

Another assay has as its system NCI-H82 cell. In words: Cell viability, Promega CellTiter-Glo, NCI-H82 cell. Type of assay: cell-based. As to conditions: Homo sapiens, NCI-H82; read-out: IC50 of cell viability inhibition. As to the method:
(§2) Cell viability was detected by using the Promega CellTiter-Glo kit, the kit reflected cell viability by directly measuring intracellular ATP content. […] Daoy cell and NCI-H82 cell were cultured in DMEM containing 10% FBS (plus p/s).

A further assay concerns C3A. In words: Cell viability CellTiter-Glo, C3A. Type of assay: cell-based. As to conditions: Homo sapiens, liver cancer. The protocol:
as §1
Cell line C3A (ATCC, No. CRL-10741) was cultured in EMEM medium containing 10% fetal bovine serum (+P/S);

The next assay concerns G-401. In words: Cell viability CellTiter-Glo, G-401. The assay is classed as cell-based. The note with it: Homo sapiens; G-401, kidney cancer. As to the method: as §1
Cell line G-401 (ATCC, No. CRL-1441) was cultured in McCoy's 5a medium containing 10% fetal bovine serum (+P/S);

In the next assay the test system is ACHN. In words: Cell viability CellTiter-Glo, ACHN. Type of assay: cell-based. As to conditions: Homo sapiens, kidney cancer. The protocol: as §1
Cell line ACHN (ATCC, No. CRL-1611) was cultured in EMEM medium containing 10% fetal bovine serum (+P/S);

Assay [1] concerns oxidative phosphorylation pathway of mitochondria. The assay is described as follows: Cellular oxygen consumption (OCR), XFe metabolic analysis system. The assay is classed as cell-based. As to conditions: NCI-H82 cell; 73.2 μM; within half an hour; FIG. 1. The protocol: The oxygen required by cell was mainly consumed in the mitochondria respiratory chain, so the measurement of cellular oxygen consumption (OCR, oxygen consumption rate) could directly reflect the activity of the oxidative phosphorylation pathway of mitochondria. In this experiment, the XFe metabolic analysis system was used to measure the oxygen consumption of NCI-H82 cell in the presence or absence of Compound SJ2858 (baicalein) and Compound SJ2775 (baicalin).
Rotenone (abbreviated as RO, 0.5 μM) is a known inhibitor of mitochondria oxidative phosphorylation pathway complex I, Antimycin A (abbreviated as AA, 0.5 μM) is a known inhibitor of mitochondria oxidative phosphorylation pathway complex III. Compound SJ2858, 73.2 μM; Compound SJ2775, 118.2 μM.

A further assay deals with U-87 MG. In words: Cell viability CellTiter-Glo, U-87 MG. As to conditions: Homo sapiens, brain cancer. Type of assay: cell-based. The protocol:
as §1
Cell line U-87MG (ATCC, No. HTB-14) was cultured in EMEM medium containing 10% fetal bovine serum (+P/S);

In another assay the test system is Gp2D. In words: Cell viability CellTiter-Glo, Gp2D. The assay is classed as cell-based. As to conditions: intestinal cancer. The protocol:
as §1
Cell line Gp2D (ECACC, No. 95090714) was cultured in DMEM medium containing 10% fetal bovine serum (+P/S);

In a further assay the test system is MDA-MB-453. In words: Cell viability CellTiter-Glo, MDA-MB-453. The assay is classed as cell-based. The note with it: Homo sapiens; MDA-MB-453, breast cancer. The protocol:
as §1
Cell line MDA-MB-453 (ATCC, No. HTB-131) was cultured in Leibovitz's L-15 medium containing 10% fetal bovine serum (+P/S);

The next assay relates to WSU-DLCL2. The assay is described as follows: Cell viability CellTiter-Glo, WSU-DLCL2. Type of assay: cell-based. As to conditions: Homo sapiens, WSUDLCL2; WSU-DLCL2, lymphoma. As to the method:
as §1
Cell line WSU-DLCL2 (DSMZ, No. ACC-575) was cultured in RPMI1640 medium containing 10% fetal bovine serum (+P/S);

Another assay deals with SF126. In words: Cell viability CellTiter-Glo, SF126. Type of assay: cell-based. As to conditions: Homo sapiens, SF-126; SF126, brain cancer. The protocol: as §1
Cell line SF126 (JCRB, No. IFO50286) was cultured in EMEM medium containing 10% fetal bovine serum (+P/S);

A further assay relates to SNU-398. The assay is described as follows: Cell viability CellTiter-Glo, SNU-398. The assay is classed as cell-based. As to conditions: Homo sapiens; SNU-398, liver cancer. The protocol: as §1
Cell line SNU-398 (ATCC, No. CRL-2233) was cultured in RPMI1640 medium (+P/S); containing 10% fetal bovine serum (+P/S);

The next assay deals with Daoy cell. The assay is described as follows: Cell viability, Promega CellTiter-Glo, Daoy cell. The assay is classed as cell-based, human. The note with it: Homo sapiens, Daoy, read-out: IC50 of cell viability inhibition. As to the method: as §2
The next assay has as its system OCI-AML-5. In words: Cell viability CellTiter-Glo, OCI-AML-5. Type of assay: cell-based. As to conditions: Homo sapiens; OCI-AML-5, leukemia. The protocol: as §1
Cell line OCI-AML-5 (DSMZ, No. ACC-247) was cultured in alpha-MEM medium containing 20% fetal bovine serum and 20% volume fraction of 5637 cell line adjusted medium (+P/S);

Broadly, the pIC50 is −log10 of the IC50, conventionally taken in molar units.

pIC50: −log10 of the molar value. Where two headings read alike, the source gives them in different places.

`O=c1cc(-c2ccccc2)oc2cc(O)c(O)c(O)c12` [Compound SJ2858, baicalein]: the pIC50 was 4.47 in the assay on G-361; 5.02 with CHL-1; 4.59 with HCC1806; 4.72 in the assay with HCC15; 4.64 in the assay with GAK; 4.47 with HH. Besides, the pIC50 is 4.85 with Jurkat, Clone E6-1; 4.81 in the assay with NCI-H82 cell; 4.57 with C3A; 4.91 in the assay with G-401; 4.75 in the assay on ACHN; 4.72 in the assay with U-87 MG. The negative-log IC50 (pIC50) is 4.83 with Gp2D; 4.12 with MDA-MB-453; 4.67 with WSU-DLCL2; 4.85 in the assay on SF126; 4.89 in the assay with SNU-398; 4.88 with Daoy cell (Daoy cell with CSA (1.5 μM mPTP inhibitor)). Moreover, the figures for the negative-log IC50 (pIC50) with Daoy cell (Daoy cell without CSA (active mPTP)) and in the assay with OCI-AML-5 were 4.45 and 4.35, respectively. For the same compound, the “Inhibition of oxygen consumption (in words)” value in [1] is reported as “significantly inhibit”.
